# Source: ChEMBL document CHEMBL4507305, “Data for DCP probe TP-024” (2021)
# Columns and labels:
# [1] = biological target: RAC-alpha serine/threonine-protein kinase (Homo sapiens) (UniProt P31749); settings: Compound concentration 1000.0 nM
# [2] = biological target: 5'-AMP-activated protein kinase catalytic subunit alpha-1 (Homo sapiens) (UniProt Q13131); settings: Compound concentration 1000.0 nM
# [3] = biological target: Tyrosine-protein kinase Blk (Homo sapiens) (UniProt P51451); settings: Compound concentration 1000.0 nM
# [4] = biological target: Protein-tyrosine kinase 6 (Homo sapiens) (UniProt Q13882); settings: Compound concentration 1000.0 nM
# [5] = biological target: Cyclin-dependent kinase 3 (Homo sapiens) (UniProt Q00526); settings: Compound concentration 1000.0 nM
# [6] = biological target: Cyclin-dependent kinase-like 1 (Homo sapiens) (UniProt Q00532); settings: Compound concentration 1000.0 nM
# [7] = biological target: Death-associated protein kinase 1 (Homo sapiens) (UniProt P53355); settings: Compound concentration 1000.0 nM
# [8] = tested on: Epidermal growth factor receptor (Homo sapiens), P00533 [UNDEFINED MUTATION]; settings: Compound concentration 1000.0 nM
# [9] = tested on: Epidermal growth factor receptor (Homo sapiens), P00533 [UNDEFINED MUTATION]; settings: Compound concentration 1000.0 nM; remark: listed apart in the source
# [10] = tested on: Epidermal growth factor receptor (Homo sapiens), P00533 [T790M]; settings: Compound concentration 1000.0 nM
# [11] = biological target: Ephrin type-B receptor 2 (Homo sapiens) (UniProt P29323); settings: Compound concentration 1000.0 nM
# [12] = biological target: Receptor tyrosine-protein kinase erbB-4 (Homo sapiens) (UniProt Q15303); settings: Compound concentration 1000.0 nM
# [13] = biological target: Mitogen-activated protein kinase 1 (Homo sapiens) (UniProt P28482); settings: Compound concentration 1000.0 nM
# [14] = biological target: Mitogen-activated protein kinase 7 (Homo sapiens) (UniProt Q13164); settings: Compound concentration 1000.0 nM
# [15] = biological target: Focal adhesion kinase 1 (Homo sapiens) (UniProt Q05397); settings: Compound concentration 1000.0 nM
# [16] = tested on: eIF-2-alpha kinase GCN2 (Homo sapiens), Q9P2K8 [S808G]; settings: Compound concentration 1000.0 nM
# [17] = biological target: G protein-coupled receptor kinase 4 (Homo sapiens) (UniProt P32298); settings: Compound concentration 1000.0 nM
# [18] = biological target: Inhibitor of nuclear factor kappa-B kinase subunit epsilon (Homo sapiens) (UniProt Q14164); settings: Compound concentration 1000.0 nM
# [19] = biological target: Mitogen-activated protein kinase 10 (Homo sapiens) (UniProt P53779); settings: Compound concentration 1000.0 nM
# [20] = biological target: Serine/threonine-protein kinase 10 (Homo sapiens) (UniProt O94804); settings: Compound concentration 1000.0 nM
# [21] = biological target: Dual specificity mitogen-activated protein kinase kinase 3 (Homo sapiens) (UniProt P46734); settings: Compound concentration 1000.0 nM
# [22] = biological target: Hepatocyte growth factor receptor (Homo sapiens) (UniProt P08581); settings: Compound concentration 1000.0 nM
# [23] = biological target: Serine/threonine-protein kinase 3 (Homo sapiens) (UniProt Q13188); settings: Compound concentration 1000.0 nM
# [24] = biological target: Serine/threonine-protein kinase 26 (Homo sapiens) (UniProt Q9P289); settings: Compound concentration 1000.0 nM
# [25] = biological target: Serine/threonine-protein kinase Nek4 (Homo sapiens) (UniProt P51957); settings: Compound concentration 1000.0 nM
# [26] = biological target: Serine/threonine-protein kinase Nek5 (Homo sapiens) (UniProt Q6P3R8); settings: Compound concentration 1000.0 nM
# [27] = biological target: Cyclin-dependent kinase 18 (Homo sapiens) (UniProt Q07002); settings: Compound concentration 1000.0 nM
# [28] = biological target: Phosphorylase b kinase gamma catalytic chain, skeletal muscle/heart isoform (Homo sapiens) (UniProt Q16816); settings: Compound concentration 1000.0 nM
# [29] = tested on: Phosphatidylinositol 4,5-bisphosphate 3-kinase catalytic subunit alpha isoform (Homo sapiens), P42336 [I800L]; settings: Compound concentration 1000.0 nM
# [30] = biological target: Phosphatidylinositol 4,5-bisphosphate 3-kinase catalytic subunit gamma isoform (Homo sapiens) (UniProt P48736); settings: Compound concentration 1000.0 nM
# [31] = biological target: Protein kinase C delta type (Homo sapiens) (UniProt Q05655); settings: Compound concentration 1000.0 nM
# [32] = tested on: Proto-oncogene tyrosine-protein kinase receptor Ret (Homo sapiens), P07949 [V804L]; settings: Compound concentration 1000.0 nM
# [33] = biological target: Proto-oncogene tyrosine-protein kinase ROS (Homo sapiens) (UniProt P08922); settings: Compound concentration 1000.0 nM
# [34] = biological target: Serine/threonine-protein kinase Sgk2 (Homo sapiens) (UniProt Q9HBY8); settings: Compound concentration 1000.0 nM
# [35] = biological target: Serine/threonine-protein kinase Sgk3 (Homo sapiens) (UniProt Q96BR1); settings: Compound concentration 1000.0 nM
# [36] = biological target: SNF-related serine/threonine-protein kinase (Homo sapiens) (UniProt Q9NRH2); settings: Compound concentration 1000.0 nM
# [37] = biological target: Serine/threonine-protein kinase 16 (Homo sapiens) (UniProt O75716); settings: Compound concentration 1000.0 nM
# [38] = biological target: Mitogen-activated protein kinase kinase kinase 7 (Homo sapiens) (UniProt O43318); settings: Compound concentration 1000.0 nM
# [39] = biological target: Tyrosine-protein kinase receptor Tie-1 (Homo sapiens) (UniProt P35590); settings: Compound concentration 1000.0 nM
# [40] = biological target: Testis-specific serine/threonine-protein kinase 3 (Homo sapiens) (UniProt Q96PN8); settings: Compound concentration 1000.0 nM
# [41] = biological target: Non-receptor tyrosine-protein kinase TYK2 (Homo sapiens) (UniProt P29597); settings: Compound concentration 1000.0 nM
# [42] = biological target: Serine/threonine-protein kinase ULK2 (Homo sapiens) (UniProt Q8IYT8); settings: Compound concentration 1000.0 nM
# [43] = biological target: Serine/threonine-protein kinase ULK3 (Homo sapiens) (UniProt Q6PHR2); settings: Compound concentration 1000.0 nM
# [44] = biological target: Serine/threonine-protein kinase WNK1 (Homo sapiens) (UniProt Q9H4A3); settings: Compound concentration 1000.0 nM
# [45] = biological target: Histamine H2 receptor (Homo sapiens) (UniProt P25021); settings: Compound concentration 10.0 uM
# Chain of Proto-oncogene tyrosine-protein kinase ROS (Homo sapiens) (P08922 whole entry): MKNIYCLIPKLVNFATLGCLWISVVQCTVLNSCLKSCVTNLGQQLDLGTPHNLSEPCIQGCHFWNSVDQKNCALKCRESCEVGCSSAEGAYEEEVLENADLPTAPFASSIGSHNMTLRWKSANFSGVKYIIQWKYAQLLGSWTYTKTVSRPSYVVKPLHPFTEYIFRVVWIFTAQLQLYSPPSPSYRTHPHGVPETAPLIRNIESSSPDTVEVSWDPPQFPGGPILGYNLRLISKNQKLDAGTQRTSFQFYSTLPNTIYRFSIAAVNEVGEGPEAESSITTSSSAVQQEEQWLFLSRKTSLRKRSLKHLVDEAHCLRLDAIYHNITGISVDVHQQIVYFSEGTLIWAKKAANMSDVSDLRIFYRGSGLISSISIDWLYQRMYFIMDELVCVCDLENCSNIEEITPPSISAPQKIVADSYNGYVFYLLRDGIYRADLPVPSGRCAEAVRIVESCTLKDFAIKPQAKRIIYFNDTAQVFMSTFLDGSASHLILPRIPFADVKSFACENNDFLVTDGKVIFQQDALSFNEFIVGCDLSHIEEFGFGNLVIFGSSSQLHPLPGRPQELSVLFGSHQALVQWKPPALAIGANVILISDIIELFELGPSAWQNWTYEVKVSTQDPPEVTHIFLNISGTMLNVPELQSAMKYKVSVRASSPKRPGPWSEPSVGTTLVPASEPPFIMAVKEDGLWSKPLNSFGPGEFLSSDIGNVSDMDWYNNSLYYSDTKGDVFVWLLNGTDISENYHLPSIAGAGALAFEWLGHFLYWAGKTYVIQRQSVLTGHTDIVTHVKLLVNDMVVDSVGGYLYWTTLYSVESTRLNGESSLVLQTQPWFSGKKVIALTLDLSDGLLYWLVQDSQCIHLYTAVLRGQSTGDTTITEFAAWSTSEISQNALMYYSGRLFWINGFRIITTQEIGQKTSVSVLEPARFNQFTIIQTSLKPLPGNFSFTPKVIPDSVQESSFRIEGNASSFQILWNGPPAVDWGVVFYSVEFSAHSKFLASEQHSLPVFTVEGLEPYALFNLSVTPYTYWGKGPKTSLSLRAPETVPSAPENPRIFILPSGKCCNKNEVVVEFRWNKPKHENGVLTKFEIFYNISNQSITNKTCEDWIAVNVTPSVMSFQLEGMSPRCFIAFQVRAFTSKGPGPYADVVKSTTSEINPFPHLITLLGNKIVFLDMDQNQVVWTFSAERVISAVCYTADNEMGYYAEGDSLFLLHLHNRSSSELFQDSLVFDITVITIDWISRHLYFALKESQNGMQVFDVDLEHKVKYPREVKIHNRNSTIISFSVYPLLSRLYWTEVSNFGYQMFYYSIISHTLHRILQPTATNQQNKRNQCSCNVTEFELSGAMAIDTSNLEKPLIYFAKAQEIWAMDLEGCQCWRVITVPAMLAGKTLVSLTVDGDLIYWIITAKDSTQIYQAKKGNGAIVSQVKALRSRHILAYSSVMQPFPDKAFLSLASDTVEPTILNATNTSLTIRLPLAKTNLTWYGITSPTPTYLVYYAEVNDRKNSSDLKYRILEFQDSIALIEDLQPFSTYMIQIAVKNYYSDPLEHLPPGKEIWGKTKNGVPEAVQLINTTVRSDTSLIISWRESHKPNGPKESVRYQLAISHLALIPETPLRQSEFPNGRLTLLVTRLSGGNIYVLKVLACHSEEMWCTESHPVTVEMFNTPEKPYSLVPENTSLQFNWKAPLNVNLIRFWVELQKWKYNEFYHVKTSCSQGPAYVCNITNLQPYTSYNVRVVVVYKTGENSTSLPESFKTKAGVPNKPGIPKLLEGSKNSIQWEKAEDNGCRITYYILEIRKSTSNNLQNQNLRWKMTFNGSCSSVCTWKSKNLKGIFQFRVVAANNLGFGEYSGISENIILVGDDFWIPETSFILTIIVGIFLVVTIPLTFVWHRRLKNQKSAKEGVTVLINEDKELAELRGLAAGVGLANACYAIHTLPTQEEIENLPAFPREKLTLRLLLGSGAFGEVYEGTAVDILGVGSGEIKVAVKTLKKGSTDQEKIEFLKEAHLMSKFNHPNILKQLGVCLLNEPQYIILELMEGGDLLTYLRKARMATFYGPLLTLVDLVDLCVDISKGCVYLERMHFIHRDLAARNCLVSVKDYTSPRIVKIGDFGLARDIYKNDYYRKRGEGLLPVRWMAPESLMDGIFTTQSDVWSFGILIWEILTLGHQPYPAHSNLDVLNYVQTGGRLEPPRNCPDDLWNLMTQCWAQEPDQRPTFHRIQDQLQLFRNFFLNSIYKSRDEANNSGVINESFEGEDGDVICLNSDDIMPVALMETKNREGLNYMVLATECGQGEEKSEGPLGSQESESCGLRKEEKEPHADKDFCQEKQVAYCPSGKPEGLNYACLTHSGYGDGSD
# Chain of Protein-tyrosine kinase 6 (Homo sapiens) (Q13882 whole entry, looked up): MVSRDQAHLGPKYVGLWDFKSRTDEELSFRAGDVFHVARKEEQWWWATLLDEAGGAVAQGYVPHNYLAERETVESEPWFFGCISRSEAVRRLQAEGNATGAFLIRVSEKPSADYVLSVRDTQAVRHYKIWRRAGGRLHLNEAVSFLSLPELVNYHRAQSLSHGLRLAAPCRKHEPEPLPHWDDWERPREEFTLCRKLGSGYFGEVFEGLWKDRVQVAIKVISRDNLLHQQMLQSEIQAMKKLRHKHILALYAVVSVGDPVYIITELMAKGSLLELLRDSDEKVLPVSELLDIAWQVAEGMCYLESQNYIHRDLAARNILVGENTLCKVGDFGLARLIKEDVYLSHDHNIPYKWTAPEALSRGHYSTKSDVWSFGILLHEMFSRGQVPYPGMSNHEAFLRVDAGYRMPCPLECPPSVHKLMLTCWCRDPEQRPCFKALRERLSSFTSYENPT
# Chain of Cyclin-dependent kinase-like 1 (Homo sapiens) (Q00532 whole entry): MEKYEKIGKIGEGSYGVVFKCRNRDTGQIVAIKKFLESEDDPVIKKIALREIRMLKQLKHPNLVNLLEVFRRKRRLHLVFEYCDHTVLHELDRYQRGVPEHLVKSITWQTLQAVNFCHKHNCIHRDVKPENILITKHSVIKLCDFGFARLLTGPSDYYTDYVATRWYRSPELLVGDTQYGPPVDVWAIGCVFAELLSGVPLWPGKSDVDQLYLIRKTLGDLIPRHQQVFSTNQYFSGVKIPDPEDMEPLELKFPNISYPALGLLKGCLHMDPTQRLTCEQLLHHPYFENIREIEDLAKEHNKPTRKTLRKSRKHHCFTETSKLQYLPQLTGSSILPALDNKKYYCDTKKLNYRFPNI
# Chain of Serine/threonine-protein kinase 3 (Homo sapiens) (Q13188 whole entry): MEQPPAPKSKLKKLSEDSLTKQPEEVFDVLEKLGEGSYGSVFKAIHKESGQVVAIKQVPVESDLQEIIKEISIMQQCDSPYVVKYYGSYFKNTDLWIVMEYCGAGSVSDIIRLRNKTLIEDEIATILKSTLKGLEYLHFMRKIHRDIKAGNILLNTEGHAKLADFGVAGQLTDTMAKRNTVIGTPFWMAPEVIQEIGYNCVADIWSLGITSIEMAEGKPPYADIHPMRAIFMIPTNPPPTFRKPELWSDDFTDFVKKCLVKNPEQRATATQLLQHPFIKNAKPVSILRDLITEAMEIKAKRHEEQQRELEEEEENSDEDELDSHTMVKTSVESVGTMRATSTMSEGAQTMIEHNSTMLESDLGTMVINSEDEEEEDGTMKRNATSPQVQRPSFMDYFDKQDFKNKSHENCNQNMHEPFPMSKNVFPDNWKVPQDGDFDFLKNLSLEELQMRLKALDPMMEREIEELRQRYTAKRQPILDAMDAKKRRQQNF
# Chain of Protein kinase C delta type (Homo sapiens) (Q05655 whole entry, looked up): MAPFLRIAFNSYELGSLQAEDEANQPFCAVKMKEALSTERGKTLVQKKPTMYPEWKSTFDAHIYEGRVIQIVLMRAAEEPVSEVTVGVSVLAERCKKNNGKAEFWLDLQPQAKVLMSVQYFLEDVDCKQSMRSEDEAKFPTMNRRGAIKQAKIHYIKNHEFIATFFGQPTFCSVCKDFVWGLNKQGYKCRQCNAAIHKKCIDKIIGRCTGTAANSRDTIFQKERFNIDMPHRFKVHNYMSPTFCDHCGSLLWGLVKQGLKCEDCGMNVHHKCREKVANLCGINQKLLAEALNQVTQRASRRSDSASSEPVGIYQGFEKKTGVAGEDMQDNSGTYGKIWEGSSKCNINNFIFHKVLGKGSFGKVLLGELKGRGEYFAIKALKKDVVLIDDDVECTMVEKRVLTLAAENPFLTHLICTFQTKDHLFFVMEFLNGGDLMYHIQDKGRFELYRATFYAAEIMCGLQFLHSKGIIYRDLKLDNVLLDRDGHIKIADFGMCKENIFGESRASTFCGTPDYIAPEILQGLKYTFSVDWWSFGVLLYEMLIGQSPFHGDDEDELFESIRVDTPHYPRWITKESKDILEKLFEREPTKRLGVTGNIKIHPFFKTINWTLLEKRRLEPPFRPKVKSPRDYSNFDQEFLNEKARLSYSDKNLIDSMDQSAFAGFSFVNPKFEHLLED
# Chain of Testis-specific serine/threonine-protein kinase 3 (Homo sapiens) (Q96PN8 whole entry): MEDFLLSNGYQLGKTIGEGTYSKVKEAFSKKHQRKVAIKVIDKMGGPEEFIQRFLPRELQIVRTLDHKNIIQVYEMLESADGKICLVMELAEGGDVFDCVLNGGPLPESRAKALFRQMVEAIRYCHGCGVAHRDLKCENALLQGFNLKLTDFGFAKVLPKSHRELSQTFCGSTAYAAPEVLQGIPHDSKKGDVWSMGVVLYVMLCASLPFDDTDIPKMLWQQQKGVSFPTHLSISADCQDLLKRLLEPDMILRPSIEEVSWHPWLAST
# Chain of Serine/threonine-protein kinase 16 (Homo sapiens) (O75716 whole entry): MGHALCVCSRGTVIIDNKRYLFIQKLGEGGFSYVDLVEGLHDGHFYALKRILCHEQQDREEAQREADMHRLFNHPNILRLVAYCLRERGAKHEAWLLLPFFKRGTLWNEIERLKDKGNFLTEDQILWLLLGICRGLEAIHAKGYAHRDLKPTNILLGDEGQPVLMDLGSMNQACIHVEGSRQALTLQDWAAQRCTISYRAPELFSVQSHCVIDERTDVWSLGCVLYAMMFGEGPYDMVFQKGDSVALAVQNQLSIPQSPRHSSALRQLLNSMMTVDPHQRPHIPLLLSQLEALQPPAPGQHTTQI
smiles,measurement,setting,value
Cc1nc(Cc2cccc(C(F)(F)F)c2)sc1-c1ccc(C(N)=O)nc1 [TP-024n],residual activity,[1],82%
same,residual activity,[2],100%
same,residual activity,[3],100%
same,residual activity,[4],100%
same,residual activity,[5],88%
same,residual activity,[6],85%
same,residual activity,[7],100%
same,residual activity,[8],0%
same,residual activity,[9],100%
same,residual activity,[10],98%
same,residual activity,[11],86%
same,residual activity,[12],74%
same,residual activity,[13],95%
same,residual activity,[14],88%
same,residual activity,[15],95%
same,residual activity,[16],100%
same,residual activity,[17],100%
same,residual activity,[18],76%
same,residual activity,[19],100%
same,residual activity,[20],100%
same,residual activity,[21],93%
same,residual activity,[22],63%
same,residual activity,[23],97%
same,residual activity,[24],83%
same,residual activity,[25],100%
same,residual activity,[26],35%
same,residual activity,[27],100%
same,residual activity,[28],84%
same,residual activity,[29],56%
same,residual activity,[30],78%
same,residual activity,[31],79%
same,residual activity,[32],86%
same,residual activity,[33],94%
same,residual activity,[34],95%
same,residual activity,[35],100%
same,residual activity,[36],84%
same,residual activity,[37],100%
same,residual activity,[38],93%
same,residual activity,[39],28%
same,residual activity,[40],100%
same,residual activity,[41],100%
same,residual activity,[42],100%
same,residual activity,[43],100%
same,residual activity,[44],100%
same,inhibition,[45],6.05%
Cc1cc(-n2nc(Cc3cc(F)cc(C(F)(F)F)c3)nc2C)ccc1C(N)=O [TP-024],residual activity,[1],94%
same,residual activity,[2],100%
same,residual activity,[3],100%
same,residual activity,[4],100%
same,residual activity,[5],100%
same,residual activity,[6],71%
same,residual activity,[7],99%
same,residual activity,[8],100%
same,residual activity,[9],100%
same,residual activity,[10],94%
same,residual activity,[11],100%
same,residual activity,[12],67%
same,residual activity,[13],100%
same,residual activity,[14],100%
same,residual activity,[15],100%
same,residual activity,[16],100%
same,residual activity,[17],100%
same,residual activity,[18],82%
same,residual activity,[19],100%
same,residual activity,[20],100%
same,residual activity,[21],100%
same,residual activity,[22],81%
same,residual activity,[23],100%
same,residual activity,[24],100%
same,residual activity,[25],100%
same,residual activity,[26],77%
same,residual activity,[27],100%
same,residual activity,[28],98%
same,residual activity,[29],70%
same,residual activity,[30],79%
same,residual activity,[31],88%
same,residual activity,[32],100%
same,residual activity,[33],87%
same,residual activity,[34],100%
same,residual activity,[35],80%
same,residual activity,[36],100%
same,residual activity,[37],91%
same,residual activity,[38],100%
same,residual activity,[39],100%
same,residual activity,[40],55%
same,residual activity,[41],100%
same,residual activity,[42],100%
same,residual activity,[43],100%
same,residual activity,[44],100%
same,inhibition,[45],6.28%
